Data on 33 compounds can be found in patent US9096592B2, “Bicyclic aza heterocycles, and use thereof” (BAYER INTELLECTUAL PROPERTY GMBH, priority 2010, dated 2015).

By IC50 is commonly meant the concentration that inhibits the measured activity by half.

Structures are written as SMILES. Structures can show the parent of a compound that is named as a salt.

In the assay the test system is aorta rings. Briefly: Vasorelaxant action in vitro (phenylephrine-contracted rabbit aorta rings, organ bath). Conditions: Oryctolagus cuniculus; concentration needed to reduce the phenylephrine contraction of rabbit aorta rings by 50%. The protocol: B-1. Vasorelaxant Action In Vitro
Rabbits are stunned by a blow to the neck and exsanguinated. The aorta is removed, freed from adhering tissue and divided into rings of width 1.5 mm, which are placed individually under prestress into 5 ml organ baths with carbogen-sparged Krebs-Henseleit solution at 37° C. having the following composition (each mM): sodium chloride 119; potassium chloride: 4.8; calcium chloride dihydrate: 1; magnesium sulfate heptahydrate: 1.4; potassium dihydrogenphosphate: 1.2; sodium hydrogencarbonate: 25; glucose: 10. The contractile force is determined with Statham UC2 cells, amplified and digitalized using A/D transducers (DAS-1802 HC, Keithley Instruments Munich), and recorded in parallel on linear recorders. To obtain a contraction, phenylephrine is added to the bath cumulatively in increasing concentration. After several control cycles, the substance to be studied is added in increasing dosage each time in every further run, and the magnitude of the contraction is compared with the magnitude of the contraction attained in the last preceding run. This is used to calculate the concentration needed to reduce the magnitude of the control value by 50% (IC50 value). The standard administration volume is 5 μl; the DMSO content in the bath solution corresponds to 0.1%.
Compound `CC(C)(O)Cn1c(=O)[nH]c2nc(-c3nn(Cc4ccccc4F)c4ncccc34)nc(N)c21` [Example 2, 6-Amino-2-[1-(2-fluorobenzyl)-1H-pyrazolo[3,4-b]pyridin-3-yl]-7-(2-hydroxy-2-methylpropyl)-7,9-dihydro-8H-purin-8-one] displayed a half-inhibitory concentration (IC50) of 49 nM.

As to `Nc1nc(-c2nn(Cc3ccccc3F)c3ncccc23)nc2cccc(Cl)c12` [Example 7, 5-Chloro-2-[1-(2-fluorobenzyl)-1H-pyrazolo[3,4-b]pyridin-3-yl]quinazolin-4-amine], the concentration for half-maximal inhibition (IC50) was 1090 nM.

In turn, `Nc1nc(-c2nn(Cc3ccccc3F)c3ncccc23)nc2sccc12` [Example 12, 2-[1-(2-Fluorobenzyl)-1H-pyrazolo[3,4-b]pyridin-3-yl]thieno[2,3-d]pyrimidin-4-amine] registered an IC50 of 284 nM. `Cc1nsc2nc(-c3nn(Cc4ccccc4F)c4ncccc34)nc(N)c12` [Example 13, 6-[1-(2-Fluorobenzyl)-1H-pyrazolo[3,4-b]pyridin-3-yl]-3-methyl[1,2]thiazolo[5,4-d]pyrimidin-4-amine] had an IC50 of 246 nM. The IC50 values of the last two compounds are within 1.5-fold of each other. On to `Nc1nc(-c2nn(Cc3ccccc3F)c3ncccc23)nc2onc(C(F)(F)F)c12` [Example 15, 6-[1-(2-Fluorobenzyl)-1H-pyrazolo[3,4-b]pyridin-3-yl]-3-(trifluoromethyl)[1,2]oxazolo[5,4-d]pyrimidin-4-amine], for which half-maximal inhibition (IC50) required 730 nM. `Nc1nc(-c2nn(Cc3ccccc3F)c3ncccc23)nc2[nH]nc(OCCO)c12` [Example 21, 2-({4-Amino-6-[1-(2-fluorobenzyl)-1H-pyrazolo[3,4-b]pyridin-3-yl]-1H-pyrazolo[3,4-d]pyrimidin-3-yl}oxy)ethanol] registered a concentration for half-maximal inhibition (IC50) of 233 nM. Compared with the last compound, the IC50 is about 3.1-fold lower.

Compound `CC1=Nc2c(N)nc(-c3nn(Cc4ccccc4F)c4ncccc34)nc2NCC1` [Example 23, 2-[1-(2-Fluorobenzyl)-1H-pyrazolo[3,4-b]pyridin-3-yl]-6-methyl-8,9-dihydro-7H-pyrimido[4,5-b][1,4]diazepin-4-amine] yielded a half-inhibitory concentration (IC50) of 197 nM. For the compound `Nc1nc(-c2nn(Cc3ccccc3F)c3ncccc23)nc2[nH]c(=S)[nH]c12` [Example 28, 6-Amino-2-[1-(2-fluorobenzyl)-1H-pyrazolo[3,4-b]pyridin-3-yl]-7,9-dihydro-8H-purine-8-thione], the midpoint of inhibition, the IC50, lay at 800 nM.

In turn, `CSc1nc2c(N)nc(-c3nn(Cc4ccccc4F)c4ncccc34)nc2[nH]1` [Example 29, 2-[1-(2-Fluorobenzyl)-1H-pyrazolo[3,4-b]pyridin-3-yl]-8-(methylsulfanyl)-7H-purin-6-amine] gave an IC50 of 31 nM.

`Nc1nc(-c2nn(Cc3ccccc3F)c3ncccc23)nc2[nH]c(=O)n(CC(F)(F)F)c12` [Example 44, 6-Amino-2-[1-(2-fluorobenzyl)-1H-pyrazolo[3,4-b]pyridin-3-yl]-7-(2,2,2-trifluoroethyl)-7,9-dihydro-8H-purin-8-one] came in with an IC50 of 83 nM. This IC50 is about 2.7-fold higher than that of the compound before. `O=c1[nH]c2nc(-c3nn(Cc4ccccc4F)c4ncccc34)ncc2n1CC(F)(F)F` [Example 45, 2-[1-(2-Fluorobenzyl)-1H-pyrazolo[3,4-b]pyridin-3-yl]-7-(2,2,2-trifluoroethyl)-7,9-dihydro-8H-purin-8-one]: inhibition was half-maximal at 41 nM (IC50). `Nc1nc(-c2nn(Cc3ccccc3F)c3ncccc23)nc2[nH]c(=O)c(C(F)(F)F)nc12` [Example 50, 4-Amino-2-[1-(2-fluorobenzyl)-1H-pyrazolo[3,4-b]pyridin-3-yl]-6-(trifluoromethyl)pteridin-7(8H)-one] returned a half-inhibitory concentration (IC50) of 1390 nM. As to `Nc1nc(-c2nn(Cc3ccccc3F)c3ncccc23)nc2nccnc12` [Example 52, 2-[1-(2-Fluorobenzyl)-1H-pyrazolo[3,4-b]pyridin-3-yl]pteridin-4-amine], the IC50 amounted to 126 nM.

`Nc1nc(-c2nn(Cc3ccccc3F)c3ncccc23)nc2[nH]nnc12` [Example 53, 5-[1-(2-Fluorobenzyl)-1H-pyrazolo[3,4-b]pyridin-3-yl]-3H-[1,2,3]triazolo[4,5-d]pyrimidin-7-amine] gave an IC50 of 424 nM. On to `Nc1nc(-c2nn(Cc3ccccc3F)c3ncccc23)nc2nsnc12` [Example 57, 5-[1-(2-Fluorobenzyl)-1H-pyrazolo[3,4-b]pyridin-3-yl][1,2,5]thiadiazolo[3,4-d]pyrimidin-7-amine], for which the IC50 is 39 nM.

The compound `Nc1nc(-c2nn(Cc3ccccc3F)c3ncccc23)nc2ncn(CC(F)(F)F)c12` [Example 60, 2-[1-(2-Fluorobenzyl)-1H-pyrazolo[3,4-b]pyridin-3-yl]-7-(2,2,2-trifluoroethyl)-7H-purin-6-amine] came in with a half-maximal inhibitory concentration (IC50) of 199 nM. Under `Nc1nc(-c2nn(Cc3ccccc3F)c3ncccc23)nc2nc(C(F)(F)F)n(CC(F)(F)F)c12` [Example 61, 2-[1-(2-Fluorobenzyl)-1H-pyrazolo[3,4-b]pyridin-3-yl]-7-(2,2,2-trifluoroethyl)-8-(trifluoromethyl)-7H-purin-6-amine] stands 759 nM; under `Nc1nc(-c2nn(Cc3ccccc3F)c3ncc(F)cc23)nc2[nH]c(=O)n(CC(F)(F)F)c12` [Example 62, 6-Amino-2-[5-fluoro-1-(2-fluorobenzyl)-1H-pyrazolo[3,4-b]pyridin-3-yl]-7-(2,2,2-trifluoroethyl)-7,9-dihydro-8H-purin-8-one], 114 nM.

On to `COC(=O)N1CCNc2nc(-c3nn(Cc4ccccc4F)c4ncccc34)ccc21` [Example 63, Methyl 6-[1-(2-fluorobenzyl)-1H-pyrazolo[3,4-b]pyridin-3-yl]-3,4-dihydropyrido[2,3-b]pyrazine-1(2H)-carboxylate], for which the IC50 came to 139 nM. As to `O=c1[nH]c2ccc(-c3nn(Cc4ccccc4F)c4ncccc34)nc2[nH]1` [Example 71, 5-[1-(2-Fluorobenzyl)-1H-pyrazolo[3,4-b]pyridin-3-yl]-1,3-dihydro-2H-imidazo[4,5-b]pyridin-2-one], the IC50 stood at 86 nM. Compound `Fc1ccccc1Cn1nc(-c2ncc3ccccc3n2)c2cccnc21` [Example 74, 2-[1-(2-Fluorobenzyl)-1H-pyrazolo[3,4-b]pyridin-3-yl]quinazoline] displayed a 50% inhibitory concentration (IC50) of 713 nM. Next, `CCOC(=O)N1CCNc2nc(-c3nn(Cc4ccccc4F)c4ncccc34)nc(N)c21` [Example 76, Ethyl 4-amino-2-[1-(2-fluorobenzyl)-1H-pyrazolo[3,4-b]pyridin-3-yl]-7,8-dihydropteridine-5(6H)-carboxylate formate]: 23 nM; `CC(C)c1nc2c(N)nc(-c3nn(Cc4ccccc4F)c4ncccc34)nc2[nH]c1=O` [Example 83, 4-Amino-2-[1-(2-fluorobenzyl)-1H-pyrazolo[3,4-b]pyridin-3-yl]-6-isopropylpteridin-7(8H)-one]: 27 nM. Regarding `Nc1nc(-c2nn(Cc3ccccc3F)c3ncccc23)nc2ccncc12` [Example 84, 2-[1-(2-Fluorobenzyl)-1H-pyrazolo[3,4-b]pyridin-3-yl]pyrido[4,3-d]pyrimidin-4-amine], inhibition was half-maximal at 155 nM (IC50). `Nc1nc(-c2nn(Cc3ccccc3F)c3ncccc23)nc2cccnc12` [Example 85, 2-[1-(2-Fluorobenzyl)-1H-pyrazolo[3,4-b]pyridin-3-yl]pyrido[3,2-d]pyrimidin-4-amine] had an IC50 of 164 nM. For `Cn1c(=O)[nH]c2nc(-n3nc(Cc4ccccc4F)c4ncccc43)nc(N)c21` [Example 89, 6-Amino-2-[3-(2-fluorobenzyl)-1H-pyrazolo[4,3-b]pyridin-1-yl]-7-methyl-7,9-dihydro-8H-purin-8-one], half-maximal inhibition (IC50) was put at 146 nM. Regarding `Nc1nc(-n2nc(Cc3ccccc3F)c3ncccc32)nc2[nH]c(=O)[nH]c12` [Example 90, 6-Amino-2-[3-(2-fluorobenzyl)-1H-pyrazolo[4,3-b]pyridin-1-yl]-7,9-dihydro-8H-purin-8-one], the 50% inhibitory concentration (IC50) was 5980 nM. With `Nc1nc(-n2nc(Cc3ccccc3F)c3ncccc32)nc2[nH]c(=O)n(Cc3ccc(F)cc3)c12` [Example 91, 6-Amino-7-(4-fluorobenzyl)-2-[3-(2-fluorobenzyl)-1H-pyrazolo[4,3-b]pyridin-1-yl]-7,9-dihydro-8H-purin-8-one], the concentration for half-maximal inhibition (IC50) was found to be 475 nM. Compound `Nc1nc(-n2nc(Cc3ccccc3F)c3ncccc32)nc2[nH]c(=O)n(CCO)c12` [Example 92, 6-Amino-2-[3-(2-fluorobenzyl)-1H-pyrazolo[4,3-b]pyridin-1-yl]-7-(2-hydroxyethyl)-7,9-dihydro-8H-purin-8-one] returned a concentration for half-maximal inhibition (IC50) of 535 nM.

Regarding `Cn1c(=O)[nH]c2nc(-c3nn(Cc4ccccc4F)c4ncc(F)cc34)ncc21` [Example 95, 2-[5-Fluoro-1-(2-fluorobenzyl)-1H-pyrazolo[3,4-b]pyridin-3-yl]-7-methyl-7,9-dihydro-8H-purin-8-one], the midpoint of inhibition, the IC50, lay at 44 nM.

`Fc1cnc2c(c1)c(-c1ncc3cc[nH]c3n1)nn2Cc1ccccc1F` [Example 97, 5-Fluoro-1-(2-fluorobenzyl)-3-(7H-pyrrolo[2,3-d]pyrimidin-2-yl)-1H-pyrazolo[3,4-b]pyridine] showed a half-inhibitory concentration (IC50) of 464 nM. The compound `COC(=O)N1CC(=O)Nc2nc(-c3nn(Cc4ccccc4F)c4ncccc34)nc(N)c21` [Example 98, Methyl 4-amino-2-[1-(2-fluorobenzyl)-1H-pyrazolo[3,4-b]pyridin-3-yl]-7-oxo-7,8-dihydropteridine-5(6H)-carboxylate] registered a half-inhibitory concentration (IC50) of 71 nM.

Compound `CNc1nc(-c2nn(Cc3ccccc3F)c3ncccc23)nc2[nH]c(=O)n(CC(F)F)c12` [Example 103, 7-(2,2-Difluoroethyl)-2-[1-(2-fluorobenzyl)-1H-pyrazolo[3,4-b]pyridin-3-yl]-6-(methylamino)-7,9-dihydro-8H-purin-8-one] displayed a concentration for half-maximal inhibition (IC50) of 658 nM.
